Assay [1] deals with male Wistar rats. Description: Anti-Thy-1 antibody induced nephritis model. The assay is classed as in vivo. The following applies: 1 mg/kg subcutaneous, 2 h before, immediately after, 5 h after anti-Thy-1 antibody, then twice a day for 2 days. On the procedure: The efficacy of the compounds of the present invention was also evaluated in an animal model of nephritis. This model simulates very closely the conditions found in human mesangial proliferative glomerulonephritis.
Anti-Thy-1 nephritis was induced by intravenous injection of anti-Thy-1-antibody to male Wistar rats. The test compound was subcutaneously administered 2 h before, immediately after, and 5 h after the anti-Thy-1 antibody treatment, and then twice a day for the following 2 days. Anti-MCP-1 antibody was intraperitoneally injected once a day for 3 days. Seven days after the anti-Thy-1 antibody treatment, the rats were sacrificed. The kidneys were perfused with 10% formaldehyde in PBS, surgically removed, and immersed in 10% formaldehyde. The kidneys were then embedded in paraffin for glomerular histopathology or in OCT compound Miles Inc., Elkhart, Ind.) in liquid nitrogen after immersion in 30% sucrose overnight. Immunohistochemical staining was performed with a mouse anti-rat ED-1 monoclonal antibody. Briefly, […] renal sections were prepared and endogenous peroxidase blocked with 0.3% hydrogen peroxide. The sections were then blocked with Protein Block (DAKO, Japan) and stained with anti-ED-1 antibody for 45 min. […] The amount of urinary protein was determined with the DC protein assay kit (Bio-Rad, Hercules, Calif.). […]

For assay [2], the system named is ICR male mice. Put plainly: Thioglycollate-induced inflammation model. Format: in vivo. Particulars: peritoneal cavity, 96 h after thioglycollate; 10 mg/kg subcutaneous at 0 h, 3 h and 16 h. The method, then: 3% Brewer's thioglycollate broth (Difco, Detroit, Mich.) was injected into the peritoneal cavity of ICR male mice, followed by subcutaneous administration of the same dose of test compound after 0 h, 3 h and 16 hours post-thioglycollate injection, respectively. After 96 h, the number of total elicited cells and MOMA2-positive cells in the peritoneal cavity was analyzed using a flowcytometer (EPICS XL, Beckman Coulter).

As for `O=C(NC(=O)c1ccc2ncoc2c1)Nc1ccc(Cl)c(Cl)c1` [Compound 80, Benzoxazol-6-yl-N-{[(3,4-dichlorophenyl)amino]carbonyl}carboxamide], the “Urinary Protein” value in assay [1] is listed as 162.1 ± 42.6 mg/day.
`O=C(NC(=O)c1ccc2ncoc2c1)Nc1ccc(C(F)(F)F)cc1` [Compound 82, Benzoxazol-6-yl-N-({[4-(trifluoromethyl)phenyl]amino}carbonyl)carboxamide]: in assay [2], the “MOMA2-positive Cells” value is 3.2 ± 0.4 × 10^6 and the “Total Cells” value is on record as 4.2 ± 0.4 × 10^6.
The like results for `O=C(NC(=O)c1ccc2c(c1)OCO2)Nc1cccc(C(F)(F)F)c1` [Compound 16, 2H-Benzo[3,4-d]1,3-dioxolen-5-yl-N-({[3-(trifluoromethyl)phenyl]amino}carbonyl)carboxamide] were, in that order, 7.5 ± 1.6 × 10^6 and 8.8 ± 1.5 × 10^6.

These data come from patent US6998407B2, “Antagonists of MCP-1 function and methods of use thereof” (Telik, Inc., priority 2001, dated 2006).
